ChEMBL document CHEMBL4842340, “Development of Cagrilintide, a Long-Acting Amylin Analogue” (J Med Chem, 2021)
≈ marks a conversion by molar mass, not a printed value. *1 amine or outer side, *2 acyl side, *3 side chain or, on linkers, in order; H or OH if unused. Where a SMILES comes first, the peptide text is derived from it. Bridges are numbered along the chain shown (N, C = ends). [ ]: non-standard residue; d: D form. The star is where a group is joined. X1 = O=C(NC(=O)[C@H](Cc1cnc[nH]1)N[*:1])[C@@H](Cc1cnc[nH]1)C(=O)[*:2]; C20 diacid = O=C(O)CCCCCCCCCCCCCCCCCCC(=O)*; γGlu = O=C(O)[C@H](CCC(=O)[*:2])N[*:1]; Agb = N=C(N)NCC[C@H](N)C(=O)O; AEEA = NCCOCCOCC(=O)O

What was measured:
[1] = Solubility of the compound in bis-tris propane at pH 7 by UPLC analysis; format: physicochemical; settings: bis-tris propane buffer
[2] = species: Rattus norvegicus; assay: Ratio of EC50 for rat calcitonin receptor expressed in BHK-13 cells to EC50 for rat AMY3R (CT+RAMP3) expressed in tk-ts13 cells; format: cell-based
[3] = species: Homo sapiens; assay: Ratio of IC50 for displacement of [125I]-calcitonin from human calcitonin receptor expressed in tk-ts 13 cells to IC50 for displacement of [125I]-amylin from human AMY3R (CTR+RAMP3) expressed in BHK-13 cells; format: cell-based
[4] = Agonist activity at rat AMY3R (CT+RAMP3) expressed in tk-ts13 cells assessed as increase in intracellular cAMP level incuabted for 25 mins by CRE luciferase reporter gene assay; format: cell-based; settings: tk-ts13, 25 min
[5] = Solubility of the compound in lactate at pH 3 by UPLC analysis; format: physicochemical; settings: lactate buffer
[6] = Displacement of [125I]-calcitonin from human calcitonin receptor expressed in tk-ts 13 cells measured after 120 mins by scintillation proximity assay; format: cell-based; settings: tk-ts13
[7] = biological target: Insulin (Homo sapiens) (UniProt P01308); assay: Effect on insulin (unknown origin) amyloid fibril formation assessed as peptide recovery in glycyl-glycine buffer at pH 4 measured after 45 hrs by thioflavin-T fluorescence assay relative to control; set-up: concentration or dose not given beside the values
[8] = Solubility of the compound in lactate at pH 4 by UPLC analysis; format: physicochemical; settings: lactate buffer
[9] = Solubility of the compound in bis-tris propane at pH 7.5 by UPLC analysis; format: physicochemical; settings: bis-tris propane buffer
[10] = species: Homo sapiens; assay: Ratio of EC50 for human calcitonin receptor expressed in BHK570 cells to EC50 for human AMY3R (CT+RAMP3) expressed in Hollex1 cells; format: cell-based
[11] = Displacement of [125I]-amylin from rat AMY3R (CTR+RAMP3) expressed in BHK-13 cells measured after 120 mins by scintillation proximity assay; format: cell-based
[12] = Solubility of the compound in lactate at pH 5 by UPLC analysis; format: physicochemical; settings: lactate buffer
[13] = Agonist activity at rat calcitonin receptor expressed in BHK-13 cells assessed as increase in intracellular cAMP concentration incubated for 25 mins by CRE luciferase reporter gene assay; format: cell-based; settings: BHK-13, 25 min
[14] = species: Rattus norvegicus; assay: Ratio of IC50 for displacement of [125I]-calcitonin from rat calcitonin receptor expressed in tk-ts 13 cells to IC50 for displacement of [125I]-amylin from rat AMY3R (CTR+RAMP3) expressed in BHK-13 cells; format: cell-based
[15] = Displacement of [125I]-calcitonin from rat calcitonin receptor expressed in tk-ts 13 cells measured after 120 mins by scintillation proximity assay; format: cell-based; settings: tk-ts13
[16] = test system: Rattus norvegicus; assay: Reduction in food intake in Sprague-Dawley rat at 30 nmol/kg, sc administered as single dose measured after 24 to 48 hrs relative to control; format: functional; set-up: scale not given: the % may be the effect or the level left; settings: time 24-48 hrs
[17] = Solubility of the compound in bis-tris propane at pH 8 by UPLC analysis; format: physicochemical; settings: bis-tris propane buffer
[18] = Solubility of the compound in bis-tris propane at pH 6 by UPLC analysis; format: physicochemical; settings: bis-tris propane buffer
[19] = test system: Rattus norvegicus; assay: Reduction in food intake in Sprague-Dawley rat at 30 nmol/kg, sc administered as single dose measured upto 24 hrs relative to control; format: functional; set-up: scale not given: the % may be the effect or the level left; settings: time hrs <=24
[20] = Solubility of the compound in bis-tris propane at pH 6.5 by UPLC analysis; format: physicochemical; settings: bis-tris propane buffer
[21] = Agonist activity at human AMY3R (CT+RAMP3) expressed in Hollex1 cells incubated for 3 hrs by luminescence assay; format: cell-based; settings: Hollex1, 3 h
[22] = biological target: Insulin (Homo sapiens) (UniProt P01308); assay: Effect on insulin (unknown origin) amyloid fibril formation assessed as lag time in glycyl-glycine buffer at pH 4 measured after 45 hrs by thioflavin-T fluorescence assay
[23] = Agonist activity at human calcitonin receptor expressed in BHK570 cells assessed as increase in intracellular cAMP concentration incubated for 3 hrs in absence of albumin by CRE luciferase reporter gene assay; format: cell-based; settings: BHK570, 3 h
[24] = Displacement of [125I]-amylin from human AMY3R (CTR+RAMP3) expressed in BHK-13 cells measured after 120 mins by scintillation proximity assay; format: cell-based
[25] = test system: Rattus norvegicus; assay: Reduction in food intake in Sprague-Dawley rat at 3 nmol/kg, sc administered as single dose measured upto 24 hrs relative to control; format: functional; set-up: scale not given: the % may be the effect or the level left; settings: time hrs <=24
[26] = test system: Rattus norvegicus; assay: Reduction in food intake in Sprague-Dawley rat at 3 nmol/kg, sc administered as single dose measured after 24 to 48 hrs relative to control; format: functional; set-up: scale not given: the % may be the effect or the level left; settings: time 24-48 hrs

Sequence of Insulin (Homo sapiens) (P01308 whole entry): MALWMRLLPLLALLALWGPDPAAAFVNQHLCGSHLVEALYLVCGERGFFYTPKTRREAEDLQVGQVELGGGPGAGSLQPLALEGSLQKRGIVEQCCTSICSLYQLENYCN

Structure (SMILES)	solubility [1] [µM]	Ratio EC50 [2]	Ratio IC50 [3]	EC50 [4] [nM]	solubility [5] [µM]	Activity [7] [%]	solubility [8] [µM]	solubility [9] [µM]	Ratio EC50 [10]	solubility [12] [µM]	EC50 [13] [nM]	Activity [16] [%]	solubility [17] [µM]	solubility [18] [µM]	Activity [19] [%]	solubility [20] [µM]	EC50 [21] [nM]	TIME [22] [h]	EC50 [23] [nM]	IC50 [24] [nM]	other results
CC[C@H](C)[C@H](NC(=O)[C@@H]1CCCN1C(=O)CNC(=O)[C@H](Cc1ccccc1)NC(=O)[C@H](CC(N)=O)NC(=O)[C@H](CC(N)=O)NC(=O)[C@H](CO)NC(=O)[C@H](CO)NC(=O)[C@H](Cc1cnc[nH]1)NC(=O)[C@H](Cc1cnc[nH]1)NC(=O)[C@H](CC(C)C)NC(=O)[C@H](Cc1ccccc1)NC(=O)[C@H](CC(N)=O)NC(=O)[C@H](C)NC(=O)[C@H](CC(C)C)NC(=O)[C@H](CCCNC(=N)N)NC(=O)[C@H](CCC(N)=O)NC(=O)[C@@H](NC(=O)[C@H](C)NC(=O)[C@@H]1CSSC[C@H](NC(=O)[C@H](CCCNC(=N)N)NC(=O)[C@H](CCCNC(=N)N)NC(=O)[C@H](CCCNC(=N)N)NC(=O)COCCOCCNC(=O)COCCOCCNC(=O)CC[C@H](NC(=O)CCCCCCCCCCCCCCCCCCC(=O)O)C(=O)O)C(=O)N[C@@H](CC(N)=O)C(=O)N[C@@H]([C@@H](C)O)C(=O)N[C@@H](C)C(=O)N[C@@H]([C@@H](C)O)C(=O)N1)[C@@H](C)O)C(=O)N[C@@H](CC(C)C)C(=O)N1CCC[C@H]1C(=O)N1CCC[C@H]1C(=O)N[C@H](C(=O)N[C@@H](CC(N)=O)C(=O)N[C@H](C(=O)NCC(=O)N[C@@H](CO)C(=O)N[C@@H](CCCNC(=N)N)C(=O)N[C@H](C(=O)N[C@@H](Cc1ccc(O)cc1)C(N)=O)[C@@H](C)O)C(C)C)[C@@H](C)O ({C20 diacid-γGlu-AEEA-AEEA}-RRRCNTATCATQRLANFLHHSSNNFGPILPPTNVGSRTY-NH2; disulfide 4-9)	200 (≈ 1020 µg/mL)	93	43	0.13	200 (≈ 1020 µg/mL)	93	200 (≈ 1020 µg/mL)	200 (≈ 1020 µg/mL)	16	200 (≈ 1020 µg/mL)	12.1	0	200 (≈ 1020 µg/mL)	200 (≈ 1020 µg/mL)	32	200 (≈ 1020 µg/mL)	0.076	45	1.24	0.213	IC50 [6]: 9.18 nM; IC50 [11]: 0.648 nM; Ratio IC50 [14]: 138; IC50 [15]: 89.2 nM
CC[C@H](C)[C@H](NC(=O)[C@@H]1CCCN1C(=O)CNC(=O)[C@H](Cc1ccccc1)NC(=O)[C@H](CC(N)=O)NC(=O)[C@H](CC(N)=O)NC(=O)[C@H](CO)NC(=O)[C@H](CO)NC(=O)[C@H](Cc1cnc[nH]1)NC(=O)[C@H](Cc1cnc[nH]1)NC(=O)[C@H](CC(C)C)NC(=O)[C@H](Cc1ccccc1)NC(=O)[C@H](CC(N)=O)NC(=O)[C@H](C)NC(=O)[C@H](CC(C)C)NC(=O)[C@H](CCCNC(=N)N)NC(=O)[C@H](CCC(N)=O)NC(=O)[C@@H](NC(=O)[C@H](C)NC(=O)[C@@H]1CSSC[C@H](NC(=O)[C@H](Cc2cnc[nH]2)NC(=O)CC[C@H](NC(=O)[C@H](Cc2cnc[nH]2)NC(=O)[C@H](Cc2cnc[nH]2)NC(=O)CCCCCCCCCCCCCCCCCCC(=O)O)C(=O)O)C(=O)N[C@@H](CC(N)=O)C(=O)N[C@@H]([C@@H](C)O)C(=O)N[C@@H](C)C(=O)N[C@@H]([C@@H](C)O)C(=O)N1)[C@@H](C)O)C(=O)N[C@@H](CC(C)C)C(=O)N1CCC[C@H]1C(=O)N1CCC[C@H]1C(=O)N[C@H](C(=O)N[C@@H](CC(N)=O)C(=O)N[C@H](C(=O)NCC(=O)N[C@@H](CO)C(=O)N[C@@H](CC(N)=O)C(=O)N[C@H](C(=O)N[C@@H](Cc1ccc(O)cc1)C(N)=O)[C@@H](C)O)C(C)C)[C@@H](C)O ({C20 diacid}-HH[γGlu]HCNTATCATQRLANFLHHSSNNFGPILPPTNVGSNTY-NH2; disulfide 5-10)	1 (≈ 4.72 µg/mL)	42	6	0.335	200 (≈ 945 µg/mL)	9	200 (≈ 945 µg/mL)	1 (≈ 4.72 µg/mL)	2	200 (≈ 945 µg/mL)	14.1	44	1 (≈ 4.72 µg/mL)	1 (≈ 4.72 µg/mL)	75	1 (≈ 4.72 µg/mL)	0.074	6	0.136	0.216	Activity [25]: 32%; IC50 [6]: 1.3 nM; IC50 [11]: 0.149 nM; Activity [26]: 4%; Ratio IC50 [14]: 22; IC50 [15]: 3.33 nM
CC[C@H](C)[C@H](NC(=O)[C@@H]1CCCN1C(=O)CNC(=O)[C@H](Cc1ccccc1)NC(=O)[C@H](CC(N)=O)NC(=O)[C@H](CC(N)=O)NC(=O)[C@H](CO)NC(=O)[C@H](CO)NC(=O)[C@H](Cc1cnc[nH]1)NC(=O)[C@H](Cc1cnc[nH]1)NC(=O)[C@H](CC(C)C)NC(=O)[C@H](Cc1ccccc1)NC(=O)[C@H](CC(N)=O)NC(=O)[C@H](C)NC(=O)[C@H](CC(C)C)NC(=O)[C@H](CCNC(=N)N)NC(=O)[C@H](CCC(N)=O)NC(=O)[C@@H](NC(=O)[C@H](C)NC(=O)[C@@H]1CSSC[C@H](NC(=O)[C@H](Cc2cnc[nH]2)NC(=O)[C@H](Cc2cnc[nH]2)C(=O)NC(=O)[C@H](Cc2cnc[nH]2)NC(=O)CC[C@H](NC(=O)CCCCCCCCCCCCCCCCCCC(=O)O)C(=O)O)C(=O)N[C@@H](CC(N)=O)C(=O)N[C@@H]([C@@H](C)O)C(=O)N[C@@H](C)C(=O)N[C@@H]([C@@H](C)O)C(=O)N1)[C@@H](C)O)C(=O)N[C@@H](CC(C)C)C(=O)N1CCC[C@H]1C(=O)N1CCC[C@H]1C(=O)N[C@H](C(=O)N[C@@H](CC(N)=O)C(=O)N[C@H](C(=O)NCC(=O)N[C@@H](CO)C(=O)N[C@@H](CC(N)=O)C(=O)N[C@H](C(=O)N[C@@H](Cc1ccc(O)cc1)C(N)=O)[C@@H](C)O)C(C)C)[C@@H](C)O ({C20 diacid-γGlu}-[X1]HCNTATCATQ[Agb]LANFLHHSSNNFGPILPPTNVGSNTY-NH2; disulfide 3-8)	7 (≈ 33.2 µg/mL)	18		1.03	200 (≈ 948 µg/mL)	7	200 (≈ 948 µg/mL)	5 (≈ 23.7 µg/mL)	10	200 (≈ 948 µg/mL)	18.4	0	19 (≈ 90 µg/mL)	200 (≈ 948 µg/mL)	28	115 (≈ 545 µg/mL)	0.095	7	0.961	1.29	
